Test results reported in patent US20110165076A1, “NOVEL [F-18]- LABELLED L-GLUTAMIC ACID AND L-GLUTAMINE DERIVATIVES (I), USE THEREOF AND METHOD FOR THEIR PRODUCTION” (BAYER SCHERING PHARMA AKTIENGESELLSCHAFT, priority 2008, published 2011).

What was measured:
[1] = tested on: A549 cells; assay: Competition cell experiment: uptake of tracer 4R/S-[F-18]F-L-glutamic acid in presence of competitor; assay type: cell-based, human; settings: competitor 1 mM; for % Tracer uptake: A549 cells, 10 min incubation with 0.250 MBq 4R/S-[F-18]F-L-Glu in PBS buffer; for inhibition of tracer uptake (competition): tracer 4R/S-[F-18]F-L-glutamic acid
Experimental: The uptake of the glutamic acid derivatives according to the invention into tumour cells was investigated in cell experiments. Here, the uptake of a radiolabelled glutamic acid derivative (4R/S—[F-18]F-L-glutamic acid) was examined in the presence of the compounds according to the invention and control susbtances (competition experiments). The compounds according to the invention were employed in excess (1 mM) over 4R/S—[F-18]F-L-glutamic acid (tracer).

[2] = tested on: A549 and H460 tumour cells; assay: Cell uptake of F-18-labelled glutamic acid derivative in tumour cells; settings: after 30 min
Text: Following labelling with F-18, (2S,4S)-2-amino-4-(3-[F-18]fluoropropyl)pentanedioic acid was examined in cell experiments with A549 and H460 tumour cells (both human non-small-cell bronchial carcinoma cell lines).

| Structure (SMILES) | % Tracer uptake [1] [%] | inhibition of tracer uptake (competition) [1] [%] | cellular uptake (FIG. 2) [2] |
| --- | --- | --- | --- |
| NC(CC(F)C(=O)O)C(=O)O [(4R/S)-fluoro-D/L-Glu] | 16.3 |  |  |
| N[C@@H](C[C@H](O)C(=O)O)C(=O)O [(4S)-hydroxy-L-Glu] | 13.2 | 87 |  |
| C[C@@H](C[C@H](N)C(=O)O)C(=O)O [(4S)-methyl-L-Glu] | 7.7 | 92 |  |
| N[C@@H](CCC(=O)O)C(=O)O [L-Glu, L-configured glutamic acid] | 12.6 | 87 |  |
| OC[C@H]1OC(O)[C@H]([18F])[C@@H](O)[C@@H]1O (some centres unmarked) [[F-18]FDG, [^18F]-2-Fluorodeoxyglucose, reference compound] |  |  | 770 000 cpm/100 000 cells |
